Counter-ions that a name gives are not always drawn. Like-named read-outs stand apart in the source and are kept apart here.
What was measured:
hPSC-NSCs [1] = experiment: RT-PCR expression of dopamine neuron genes in hPSC-NSCs treated with small molecule hits; assay type: cell-based, human; conditions: for fold induction at 2.5 µM: Homo sapiens, Neuron, 336 h
Description: (§1) The method specifically involved treating both hESC-H9-NSCs (Invitrogen) and hPSC-NSCs with Purmorphamine (2 μM) and FGF8 (100 ng/mL) in NB medium [NeuroBasal medium, 1× GlutaMAX, 1× N2/B27 Supplement (Invitrogen)] for 7 days. After 7 days of Purmorphamine and FGF8 treatment, the NSCs were dissociated with Accutase (Sigma) and plated 20,000 cells/mL into Matrigel coated 96 well plates and treated with small molecule library (Torcris 1120 Biologically Active Compounds) at 2.5 μM final concentration for two weeks (FIG. 6A). Two weeks after treatment with small molecules, all wells were visually observed and scored based on neurite density and dopamine release. For measuring neurite density, cells were fixed with 4% paraformaldehyde and phase contrast images were acquired using Cellavista Cell Imaging System (Roche Applied Science) from randomly selected fields. Neurite density was measured using the Cellavista density software image processing program. Each experimental condition was done in duplicate wells, and at least three independent experiments were conducted to acquire the final results.
(§2) Conditioned medium from the top neurite inducers (Table 1) (wells containing the highest density of neurites compare to control 0.1% DMSO treated) were collected and analyzed using a dopamine ELISA assay (Cosmo Bio). Conditioned medium was collected from samples containing 50,000 cells per well and centrifuged at 3000 RPM to remove cell debris. Supernatant was then collected and analyzed for quantitative determination of dopamine using a commercial dopamine ELISA assay kit (CusaCosmo Bio). Data analysis was performed using the microtiter plate reader (BIO-TEK Synergy 2). The results presented are from three independent experiments (n=3) and represented as mean±standard error of mean (s.e.m.) and statistical analysis was performed using the two-tailed Student's t-test with a confidence level of 95% (α=0.05) with statistical significance of P<0.05. Additionally, total RNA from each well were collected and analyze by RT-PCR for expression of TuJ1, MAP2, TH, GRK2, EN1, DAT, AADC, PAX2, NURR1, PITX3 and LMX1B from hPSC-NSCs (Table 2). […] Analysis of the ELISA data indicated the top small molecule neurite inducers produced higher levels of dopamine than control non-treated cells (1.5 ng/mL). […] The percentages of TH positive cells produced by chemical treatment with Kenpaullone (33%), Guggulsterone (35%), Kynurenic Acid (19%), Immedthridine Dihydrobromide (21%), and Dimaprit Dihydrochloride (18%) were higher than 15% of TH positive cells obtained from hPSC-NSCs differentiated for ≥1 month using a standard dopaminergic differentiation medium (BDNF 20 ng/mL, GDNF 20 ng/mL, cAMP 200 μM, Abscorbic Acid 200 μM, TGFβ3 2 ng/mL and DAPT).
Total RNA from at least triplicate samples with around 1 million cells each was isolated using either QIAsymphony automatic purification system or RNeasy Plus Mini kit, according to manufacturer's instructions (Qiagen). Total RNA was used for reverse transcription with the iScript cDNA synthesis kit (Biorad) and Px2 Thermal Cycler (Thermo Scientific). To analyze gene expression, PCR reactions were performed in duplicate using 1/25-th of the cDNA per reaction and the QuantiTect Primer Assay and Quantitest SYBR Green master mix (Qiagen). qPCR was performed using the Rotor-Gene Q (Qiagen) 5 min at 95° C., 5 s at 92° C., and 20 s at 60° C. for 37 cycles followed by melt to check the specificity of the amplicons from 50 to 99° C. raising by 1° C. each step. Relative quantification was performed against a standard curve and quantified values were normalized against the input determined by PPIG. The primers used for the analysis are listed in Supplementary Table S1. […]

hPSC-NSCs [2] = experiment: Percentage of TH positive cells produced by chemical treatment; assay type: cell-based, human; conditions: chemical treatment 2.5 μM for two weeks
Description: as §1, §2

[3] = hPSC-NSCs primed 7 days with Purmorphamine and FGF8, small molecule 2.5 μM for two weeks, read-out: DDC (AADC) expression by RT-PCR
[4] = hPSC-NSCs primed 7 days with Purmorphamine and FGF8, small molecule 2.5 μM for two weeks, read-out: EN1 expression by RT-PCR
[5] = hPSC-NSCs primed 7 days with Purmorphamine and FGF8, small molecule 2.5 μM for two weeks, read-out: KCNJ6 expression by RT-PCR
[6] = hPSC-NSCs primed 7 days with Purmorphamine and FGF8, small molecule 2.5 μM for two weeks, read-out: MAP2 expression by RT-PCR
[7] = hPSC-NSCs primed 7 days with Purmorphamine and FGF8, small molecule 2.5 μM for two weeks, read-out: NR4A2 (NURR1) expression by RT-PCR
[8] = hPSC-NSCs primed 7 days with Purmorphamine and FGF8, small molecule 2.5 μM for two weeks, read-out: PITX3 expression by RT-PCR
[9] = hPSC-NSCs primed 7 days with Purmorphamine and FGF8, small molecule 2.5 μM for two weeks, read-out: TH1 expression by RT-PCR
[10] = hPSC-NSCs primed 7 days with Purmorphamine and FGF8, small molecule 2.5 μM for two weeks, read-out: Tubb3 expression by RT-PCR
[11] = read-out: SLC6A3 (DAT) expression by RT-PCR
[12] = hPSC-NSCs primed 7 days with Purmorphamine and FGF8, small molecule 2.5 μM for two weeks, read-out: LMX1B expression by RT-PCR
[13] = hPSC-NSCs primed 7 days with Purmorphamine and FGF8, small molecule 2.5 μM for two weeks, read-out: Pax2 expression by RT-PCR
[14] = hPSC-NSCs primed 7 days with Purmorphamine and FGF8, small molecule 2.5 μM for two weeks, read-out: SLC6A3 (DAT) expression by RT-PCR
[15] = hPSC-NSCs primed 7 days with Purmorphamine and FGF8, small molecule 2.5 μM for two weeks

Row | Compound | fold induction at 2.5 µM (hPSC-NSCs [1]; [3]) | fold induction at 2.5 µM (hPSC-NSCs [1]; [4]) | fold induction at 2.5 µM (hPSC-NSCs [1]; [5]) | fold induction at 2.5 µM (hPSC-NSCs [1]; [6]) | fold induction at 2.5 µM (hPSC-NSCs [1]; [7]) | fold induction at 2.5 µM (hPSC-NSCs [1]; [8]) | fold induction at 2.5 µM (hPSC-NSCs [1]; [9]) | fold induction at 2.5 µM (hPSC-NSCs [1]; [10]) | fold induction at 2.5 µM (hPSC-NSCs [1]; [12]) | fold induction at 2.5 µM (hPSC-NSCs [1]; [13]) | fold induction at 2.5 µM (hPSC-NSCs [1]; [14]) | other results
1 | CN(C)CCCSC(=N)N [Dimaprit dihydrochloride] | 31.9 | 15.5 | 0.16 | 12.4 | 1.87 | 0.45 | 9.02 | 9.62 | – | – | – | percentage of TH positive cells (hPSC-NSCs [2]): 18%
2 | c1cc(Cc2cnc[nH]2)ccn1 [Immethridine dihydrobromide] | 28.2 | 11.8 | 0.22 | 12.7 | 0.52 | – | 9.72 | 10.6 | 7.66 | 41.2 | – | fold induction at 2.5 µM (hPSC-NSCs [1]; [11]): 33.6; percentage of TH positive cells (hPSC-NSCs [2]): 21%
3 | O=C1Cc2c([nH]c3ccc(Br)cc23)-c2ccccc2N1 [Kenpaullone] | 11.1 | 11 | 0.12 | 8.17 | 0.05 | – | 2.15 | 9.61 | – | – | – | fold induction at 2.5 µM (hPSC-NSCs [1]; [11]): 108; percentage of TH positive cells (hPSC-NSCs [2]): 33%
4 | CC1(C)NC(=O)N(c2ccc([N+](=O)[O-])c(C(F)(F)F)c2)C1=O [Nilutamide] | 172 | 5.33 | 2.1 | 10.6 | 1.43 | 0.27 | 10.1 | 3.81 | 2.55 | 0.9 | 2.07 | –
5 | CCN1CCC[C@H]1CNC(=O)c1c(OC)ccc(Br)c1OC [Remoxipride hydrochloride] | 13.8 | 6.6 | 0.93 | 11.5 | 3.21 | 0.69 | 12 | 5.73 | 3.16 | 0.86 | 6.41 | –
6 | CC1=C(/C=C/C(C)=C/C=C/C(C)=C/C(=O)O)C(C)(C)CCC1 [Retinoic acid] | 110 | 12.8 | 2.8 | 7.7 | 153 | 0.04 | 1.99 | 7.05 | 1.25 | 0.5 | 1.99 | –
7 | CCOC(=O)c1ncn2c1CN(C)C(=O)c1cc(N=[N+]=[N-])ccc1-2 [Ro 15-4513] | – | – | – | – | – | – | – | – | – | – | – | DDC (AADC) expression by RT-PCR (hPSC-NSCs [1]; [15]): 12.88; EN1 expression by RT-PCR (hPSC-NSCs [1]; [15]): 5.9; KCNJ6 (GRK2) expression by RT-PCR (hPSC-NSCs [1]; [15]): 0.09; MAP2 expression by RT-PCR (hPSC-NSCs [1]; [15]): 7.19; NR4A2 (NURR1) expression by RT-PCR (hPSC-NSCs [1]; [15]): 0.9; PITX3 expression by RT-PCR (hPSC-NSCs [1]; [15]): 0.72; SLC6A3 (DAT) expression by RT-PCR (hPSC-NSCs [1]; [15]): 0.46; TH1 expression by RT-PCR (hPSC-NSCs [1]; [15]): 8.49; Tubb3 expression by RT-PCR (hPSC-NSCs [1]; [15]): 4.9
8 | FC(F)(F)c1cccc(-c2noc(-c3cc(-c4ccccc4)c(C(F)(F)F)s3)n2)c1 [SEW 2871] | 68.3 | 8.08 | 0.88 | 12.3 | 2.36 | – | 7.6 | 5.17 | 3.65 | 1.59 | 32.1 | –
9 | O=C(CCCN1CCC2(CC1)C(=O)NCN2c1ccccc1)c1ccc(F)cc1 [Spiperone hydrochloride] | 13.1 | 7.4 | 0.24 | 9.66 | 0.58 | 0.18 | 11.1 | 3.57 | – | – | 1.25 | –
10 | C/C(=C\c1ccc(C(=O)O)cc1)c1ccc2c(c1)C(C)(C)CCC2(C)C [TTNPB] | – | – | – | – | – | – | – | – | – | – | – | DDC (AADC) expression by RT-PCR (hPSC-NSCs [1]; [15]): 21.95; EN1 expression by RT-PCR (hPSC-NSCs [1]; [15]): 9.42; KCNJ6 (GRK2) expression by RT-PCR (hPSC-NSCs [1]; [15]): 0.69; LMX1B expression by RT-PCR (hPSC-NSCs [1]; [15]): 1.45; MAP2 expression by RT-PCR (hPSC-NSCs [1]; [15]): 6.36; NR4A2 (NURR1) expression by RT-PCR (hPSC-NSCs [1]; [15]): 14.8; Pax2 expression by RT-PCR (hPSC-NSCs [1]; [15]): 0.09; SLC6A3 (DAT) expression by RT-PCR (hPSC-NSCs [1]; [15]): 0.5; TH1 expression by RT-PCR (hPSC-NSCs [1]; [15]): 5.5; Tubb3 expression by RT-PCR (hPSC-NSCs [1]; [15]): 4.64
11 | S=C(NC1CCCCC1)N1CCC(c2cnc[nH]2)CC1 [Thioperamide] | 95.6 | 7.72 | 2.21 | 13.2 | 3.43 | 0.28 | 8.38 | 5.6 | 3.81 | 1.15 | – | fold induction at 2.5 µM (hPSC-NSCs [1]; [11]): 25.5
12 | Cl.N=C(N)NC(=N)Nc1cccc(Cl)c1 [m-Chlorophenylbiguanide hydrochloride] | – | – | – | – | – | – | – | – | – | – | – | DDC (AADC) expression by RT-PCR (hPSC-NSCs [1]; [15]): 69.41; EN1 expression by RT-PCR (hPSC-NSCs [1]; [15]): 7.96; KCNJ6 (GRK2) expression by RT-PCR (hPSC-NSCs [1]; [15]): 1.65; LMX1B expression by RT-PCR (hPSC-NSCs [1]; [15]): 3.73; MAP2 expression by RT-PCR (hPSC-NSCs [1]; [15]): 9.6; NR4A2 (NURR1) expression by RT-PCR (hPSC-NSCs [1]; [15]): 5.51; Pax2 expression by RT-PCR (hPSC-NSCs [1]; [15]): 0.28; SLC6A3 (DAT) expression by RT-PCR (hPSC-NSCs [1]; [15]): 1.53; TH1 expression by RT-PCR (hPSC-NSCs [1]; [15]): 6.67; Tubb3 expression by RT-PCR (hPSC-NSCs [1]; [15]): 4.97
13 | O=C(O)/C=C/CO [trans-4-Hydroxycrotonic acid] | 69.7 | 12.7 | 0.22 | 12.4 | 4.49 | – | 13.2 | 10.8 | – | – | – | fold induction at 2.5 µM (hPSC-NSCs [1]; [11]): 6.11
14 | AM580 | – | – | – | – | – | – | – | – | – | – | – | DDC (AADC) expression by RT-PCR (hPSC-NSCs [1]; [15]): 81.43; EN1 expression by RT-PCR (hPSC-NSCs [1]; [15]): 12.94; KCNJ6 (GRK2) expression by RT-PCR (hPSC-NSCs [1]; [15]): 2.73; LMX1B expression by RT-PCR (hPSC-NSCs [1]; [15]): 2.16; MAP2 expression by RT-PCR (hPSC-NSCs [1]; [15]): 8.55; NR4A2 (NURR1) expression by RT-PCR (hPSC-NSCs [1]; [15]): 7.11; Pax2 expression by RT-PCR (hPSC-NSCs [1]; [15]): 0.1; SLC6A3 (DAT) expression by RT-PCR (hPSC-NSCs [1]; [15]): 0.66; TH1 expression by RT-PCR (hPSC-NSCs [1]; [15]): 5.28; Tubb3 expression by RT-PCR (hPSC-NSCs [1]; [15]): 4.58
